Laboratory results published in patent US12383624B2, “Cargo delivery system and composition comprising the same” (SEOUL NATIONAL UNIVERSITY R&DB FOUNDATION, priority 2018, dated 2025).

Experiments:
Test in all cases: target protein degradation by immunoblotting (Experimental Example 6)
Bcl-2 = assay type: cell-based, human; details: HEK293T cell line, 24 hours
Procedure: (§1) In order to evaluate the target proteion degradation efficacy by Examples 14 to 33 according the disclosure, the following experiment was conducted.
(§2) First, as cell lines primarily expressing the target protein, Human kidney-derived cancer cells, HEK293T (ATCC, CRL-3216), human prostate-derived cancer cells, LNcap (Korean Cell Line Bank, Korean Cell Line Research Foundation, KCLB No. 80018), mouse embryonic fibroblast, MEF (ATCC, SCRC-1008), human cervical cancer cells, HeLa (Korean Cell Line Bank, Korean Cell Line Research Foundation, KCLB No. 10002), human blood-derived cells, K562 (Korean Cell Line Bank, Korean Cell Line Research Foundation, KCLB No. 10243), human blood-derived cells, THP-1 (Korean Cell Line Bank, Korean Cell Line Research Foundation, KCLB No. 40202), human lung-derived cancer cells, A549 (Korean Cell Line Bank, Korean Cell Line Research Foundation, KCLB No. 10185), human breast-derived cancer cells, MCF7 (Korean Cell Line Bank, Korean Cell Line Research Foundation, KCLB No. 30022), human neuroblastoma, SH-SY5Y cell lines (Korean Cell Line Bank, Korean Cell Line Research Foundation, KCLB No. 22266), human pancreatic cancer cells, PANC-1 (Korean Cell Line Bank, Korean Cell Line Research Foundation, KCLB No. 21469) were cultured, respectively, in an incubator maintained at 5% carbon dioxide, using DMEM containing 10% FBS and 1% streptomycin/penicillin, RPMI1640, or MEM medium, and then the respective cells were dispensed in 12-well plate. Additional incubation was performed for 24 hours to ensure that each cell completely fixed to the surface of the plate.
(§3) In order to confirm whether Compounds A to W of Examples 14 to 33 degrade the target protein respectively, the cultured cells were treated with the compound of each example for 24 hours and then collected.
(§4) In this case, HEK293T, which is human kidney-derived cancer cells, LNcap, which is human prostate-derived cancer cells, and MEF cell line, which is mouse embryonic fibroblasts, were treated with Example 14 (Compound A). HEK293T, which is human kidney-derived cancer cells, was treated with Example 15 (Compound B). HEK293T cell line, which is human kidney-derived cancer cells, and HeLa cell line, which is cervical-derived cancer cells, were treated with Example 16 (Compound C). HEK293T cell line, which is human kidney-derived cancer cells, was treated with Example 17 (Compound D). K562 cell line, which is human blood-derived cells, was treated with Example 18 (Compound E). HEK293T cell line, which is human kidney-derived cancer cells, was treated with Example 19 (Compound F). THP-1 cell line, which is human blood-derived cells, was treated with Example 20 (Compound G). A549 cell line, which is human lung-derived cancer cells, was treated with Example 21 (Compound H). A549 cell line, which is human lung-derived cancer cells, was treated with Example 22 (Compound I). MCF7 cell line, which is human breast-derived cancer cells, was treated with Example 23 (Compound J). HEK293T cell line, which is […], was treated with Example 24 (Compound L). SH-SY5Y, which is human neuroblastoma, and HeLa cell line, which is cervical-derived cancer cells, were treated with Example 25 (Compound M). THP-1 cell line, which is human blood-derived cells, was treated with Example 26 (Compound P). SH-SY5Y, which is human neuroblastoma, and HeLa cell line, which is cervical-derived cancer cells, were treated with Example 27 (Compound Q). SH-SY5Y, which is human neuroblastoma, and HeLa cell line, which is cervical-derived cancer cells, were treated with Example 28 (Compound R). HeLa cell line, a human cervical-derived cancer cell, was treated with Example 29 (Compound S). SH-SY5Y cell line, which is human neuroblastoma, was treated with Example 30 (Compound T). SH-SY5Y cell line, which is human neuroblastoma, was treated with Example 31 (Compound U). PANC-1 cell line, which is human pancreatic-derived cancer cells, was treated with Example 32 (Compound V). […]

BCR-Abl = target: T1, BCR-Abl (Homo sapiens, UniProt P00519); assay type: cell-based; details: K562 cell line, 24 hours
T1 construct: BCR (N-terminal fusion partner, P11274); endogenous in cells; host or cells: K562; the other entry of the earlier key: BCR (P11274, Breakpoint cluster region protein)
T1 sequence (P00519 with tags, fused parts or gaps): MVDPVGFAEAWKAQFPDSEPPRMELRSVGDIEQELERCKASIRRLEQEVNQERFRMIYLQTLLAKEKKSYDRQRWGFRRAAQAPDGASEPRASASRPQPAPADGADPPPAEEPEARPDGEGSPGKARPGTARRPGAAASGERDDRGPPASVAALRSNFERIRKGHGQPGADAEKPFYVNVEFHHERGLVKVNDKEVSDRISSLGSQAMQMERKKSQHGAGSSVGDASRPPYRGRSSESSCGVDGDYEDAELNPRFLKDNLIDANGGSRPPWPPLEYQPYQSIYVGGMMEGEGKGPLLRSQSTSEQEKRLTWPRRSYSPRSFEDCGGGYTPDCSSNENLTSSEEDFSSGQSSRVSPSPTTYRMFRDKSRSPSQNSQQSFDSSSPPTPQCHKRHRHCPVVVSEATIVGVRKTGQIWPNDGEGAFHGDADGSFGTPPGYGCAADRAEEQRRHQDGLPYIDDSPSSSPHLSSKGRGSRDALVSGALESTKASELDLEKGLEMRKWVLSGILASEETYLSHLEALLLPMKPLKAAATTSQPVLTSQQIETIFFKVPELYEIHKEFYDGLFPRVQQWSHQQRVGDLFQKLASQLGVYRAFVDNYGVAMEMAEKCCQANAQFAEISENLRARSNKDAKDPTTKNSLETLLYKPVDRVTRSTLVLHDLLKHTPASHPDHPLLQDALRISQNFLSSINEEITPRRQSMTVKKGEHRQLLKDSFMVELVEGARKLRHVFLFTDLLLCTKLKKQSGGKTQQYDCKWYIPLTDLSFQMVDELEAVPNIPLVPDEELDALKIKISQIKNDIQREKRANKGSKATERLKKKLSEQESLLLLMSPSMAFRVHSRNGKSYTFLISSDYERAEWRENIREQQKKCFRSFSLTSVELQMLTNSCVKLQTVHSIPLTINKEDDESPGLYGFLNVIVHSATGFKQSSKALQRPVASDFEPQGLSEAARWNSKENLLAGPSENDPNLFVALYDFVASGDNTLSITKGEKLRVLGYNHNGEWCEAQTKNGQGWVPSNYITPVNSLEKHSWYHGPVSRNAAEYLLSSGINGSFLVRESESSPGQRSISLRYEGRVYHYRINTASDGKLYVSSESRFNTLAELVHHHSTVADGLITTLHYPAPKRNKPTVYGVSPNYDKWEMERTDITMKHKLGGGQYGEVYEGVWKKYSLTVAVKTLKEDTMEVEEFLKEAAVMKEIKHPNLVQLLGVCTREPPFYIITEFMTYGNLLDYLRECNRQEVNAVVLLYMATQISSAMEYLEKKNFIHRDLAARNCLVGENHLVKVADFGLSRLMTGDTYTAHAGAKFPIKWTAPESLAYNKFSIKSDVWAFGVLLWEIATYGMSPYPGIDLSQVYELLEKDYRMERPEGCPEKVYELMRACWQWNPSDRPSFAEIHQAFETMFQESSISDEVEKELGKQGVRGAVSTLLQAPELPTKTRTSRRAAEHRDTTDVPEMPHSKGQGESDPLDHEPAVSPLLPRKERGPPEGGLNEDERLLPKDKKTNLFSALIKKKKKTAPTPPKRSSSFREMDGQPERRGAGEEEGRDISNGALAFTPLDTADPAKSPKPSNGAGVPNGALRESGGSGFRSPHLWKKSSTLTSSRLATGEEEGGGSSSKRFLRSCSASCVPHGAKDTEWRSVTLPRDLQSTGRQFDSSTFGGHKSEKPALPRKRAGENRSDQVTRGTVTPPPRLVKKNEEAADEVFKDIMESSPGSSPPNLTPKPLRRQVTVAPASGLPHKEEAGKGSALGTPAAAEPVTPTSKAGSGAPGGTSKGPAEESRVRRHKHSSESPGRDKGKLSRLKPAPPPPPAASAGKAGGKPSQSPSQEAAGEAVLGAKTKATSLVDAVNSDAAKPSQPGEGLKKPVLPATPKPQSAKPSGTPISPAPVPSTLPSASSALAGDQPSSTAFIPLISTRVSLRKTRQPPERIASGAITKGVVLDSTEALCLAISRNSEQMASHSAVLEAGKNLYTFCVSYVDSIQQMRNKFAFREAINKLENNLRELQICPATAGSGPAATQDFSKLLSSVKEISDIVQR
T1 sequence (Q13501 2-440 partner limits assumed): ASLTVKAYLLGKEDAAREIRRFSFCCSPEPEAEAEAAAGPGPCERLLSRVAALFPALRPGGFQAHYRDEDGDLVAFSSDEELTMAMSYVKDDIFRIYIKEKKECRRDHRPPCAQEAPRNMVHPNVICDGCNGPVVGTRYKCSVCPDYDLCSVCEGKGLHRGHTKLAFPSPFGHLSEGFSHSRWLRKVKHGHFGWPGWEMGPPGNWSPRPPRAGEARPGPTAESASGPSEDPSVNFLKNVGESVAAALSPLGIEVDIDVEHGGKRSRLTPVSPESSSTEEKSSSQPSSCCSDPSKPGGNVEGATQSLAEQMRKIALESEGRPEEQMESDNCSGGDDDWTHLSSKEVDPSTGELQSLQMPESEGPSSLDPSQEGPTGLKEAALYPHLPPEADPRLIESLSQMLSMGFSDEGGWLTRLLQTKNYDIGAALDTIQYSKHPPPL
Procedure: as §1, §2, §3, §4

c-Abl = target: T2, c-Abl (Homo sapiens, UniProt P00519); assay type: cell-based; details: K562 cell line, 24 hours
T2 construct: as cell lines primarily expressing the target protein; endogenous in cells; host or cells: K562
T2 sequence (P00519 whole entry): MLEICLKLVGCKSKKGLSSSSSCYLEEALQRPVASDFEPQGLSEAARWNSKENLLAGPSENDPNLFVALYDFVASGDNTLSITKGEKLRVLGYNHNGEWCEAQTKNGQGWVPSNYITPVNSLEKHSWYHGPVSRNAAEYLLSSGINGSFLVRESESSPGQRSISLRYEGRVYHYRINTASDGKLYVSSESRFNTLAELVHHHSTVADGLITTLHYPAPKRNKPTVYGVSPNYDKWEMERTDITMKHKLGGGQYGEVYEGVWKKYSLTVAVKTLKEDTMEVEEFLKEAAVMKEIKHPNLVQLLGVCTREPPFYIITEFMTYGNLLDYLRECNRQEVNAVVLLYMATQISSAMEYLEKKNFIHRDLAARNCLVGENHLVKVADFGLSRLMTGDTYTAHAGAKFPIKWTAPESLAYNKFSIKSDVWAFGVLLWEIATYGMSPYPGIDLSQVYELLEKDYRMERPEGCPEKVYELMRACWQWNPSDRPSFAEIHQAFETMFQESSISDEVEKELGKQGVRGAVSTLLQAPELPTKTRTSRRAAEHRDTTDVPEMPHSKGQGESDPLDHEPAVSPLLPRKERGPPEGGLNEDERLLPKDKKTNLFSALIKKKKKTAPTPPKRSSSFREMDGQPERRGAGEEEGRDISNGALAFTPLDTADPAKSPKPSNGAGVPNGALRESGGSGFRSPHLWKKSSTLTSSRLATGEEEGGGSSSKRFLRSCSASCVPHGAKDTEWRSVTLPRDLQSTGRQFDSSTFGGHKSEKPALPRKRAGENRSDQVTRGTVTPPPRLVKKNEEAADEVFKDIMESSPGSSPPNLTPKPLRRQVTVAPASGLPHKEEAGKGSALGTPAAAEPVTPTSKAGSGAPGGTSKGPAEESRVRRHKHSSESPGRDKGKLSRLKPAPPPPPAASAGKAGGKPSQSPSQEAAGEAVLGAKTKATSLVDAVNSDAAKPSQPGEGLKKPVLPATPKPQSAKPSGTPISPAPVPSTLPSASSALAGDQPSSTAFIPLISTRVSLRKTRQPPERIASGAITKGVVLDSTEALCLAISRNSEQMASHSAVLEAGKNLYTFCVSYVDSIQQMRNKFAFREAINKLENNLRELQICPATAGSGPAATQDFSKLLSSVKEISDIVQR
T2 sequence (Q13501 2-440 partner limits assumed): as the sequence (Q13501 2-440 partner limits assumed) above
Procedure: as §1, §2, §3, §4

Chk1 = target: T3, Chk1 (Homo sapiens, UniProt O14757); assay type: cell-based; details: HEK293T cell line, 24 hours
T3 construct: as cell lines primarily expressing the target protein; endogenous in cells; host or cells: HEK293T
Procedure: as §1, §2, §3, §4

ACVR1 = target: T4, ACVR1 (Homo sapiens, UniProt Q04771); assay type: cell-based; details: HEK293T and HeLa cell lines, 24 hours
T4 construct: as cell lines primarily expressing the target protein; endogenous in cells; host or cells: HEK293T, HeLa
Procedure: as §1, §2, §3, §4

ERα = target: T5, ERα (Homo sapiens, UniProt P03372); assay type: cell-based; details: MCF7 cell line, 24 hours
T5 construct: as cell lines primarily expressing the target protein; endogenous in cells; host or cells: MCF7
T5 sequence (P03372 whole entry): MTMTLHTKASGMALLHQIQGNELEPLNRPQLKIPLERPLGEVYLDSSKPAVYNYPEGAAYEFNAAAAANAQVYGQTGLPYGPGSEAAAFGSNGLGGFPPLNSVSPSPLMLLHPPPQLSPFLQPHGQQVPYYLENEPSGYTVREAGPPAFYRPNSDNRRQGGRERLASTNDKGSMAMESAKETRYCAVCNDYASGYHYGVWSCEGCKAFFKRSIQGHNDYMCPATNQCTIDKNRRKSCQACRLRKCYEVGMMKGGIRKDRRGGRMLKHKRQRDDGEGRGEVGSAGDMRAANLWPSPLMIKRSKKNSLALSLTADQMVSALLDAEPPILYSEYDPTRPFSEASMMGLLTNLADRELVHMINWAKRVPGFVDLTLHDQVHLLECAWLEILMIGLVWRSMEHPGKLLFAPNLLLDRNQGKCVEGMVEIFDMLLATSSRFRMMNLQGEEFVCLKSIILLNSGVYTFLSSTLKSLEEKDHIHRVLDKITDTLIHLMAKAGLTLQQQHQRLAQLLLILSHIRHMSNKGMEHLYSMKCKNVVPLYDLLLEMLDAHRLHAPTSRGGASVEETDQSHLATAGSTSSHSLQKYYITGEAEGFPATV
Procedure: as §1, §2, §3, §4

CK2 = assay type: cell-based, human; details: HEK293T cell line, 24 hours
Procedure: as §1, §2, §3, §4

O=C(O)c1ccc2c(c1)nc(Nc1cc(Cl)cc(NCCOCCOCCOCCOCCOCCNC[C@@H](O)COc3ccc(OCc4ccc(F)cc4)c(OCc4ccc(F)cc4)c3)c1)c1ccncc12 [Example 24, (R)-5-((3-((21-(3,4-bis((4-fluorobenzyl)oxy)phenoxy)-20-hydroxy-3,6,9,12,15-pentaoxa-18-azahenicosyl)amino)-5-chlorophenyl)amino)benzo[c][2,6]naphthyridine-8-carboxylic acid]
degradation of target protein Bcl-2 (decrease in level vs Control) (Bcl-2): can be degraded

Cc1nc(Nc2ncc(C(=O)Nc3c(C)cccc3Cl)s2)cc(N2CCN(CCNCCOCCOCCNC[C@@H](O)COc3ccc(OCc4ccccc4)c(OCCCc4ccccc4)c3)CC2)n1 [Example 18, (R)-2-((6-(4-(15-(4-(benzyloxy)-3-(3-phenylpropoxy)phenoxy)-14-hydroxy-6,9-dioxa-3,12-diazapentadecyl)piperazin-1-yl)-2-methylpyrimidin-4-yl)amino)-N-(2-chloro-6-methylphenyl)thiazole-5-carboxamide]
degradation of target protein BCR-Abl (decrease in level vs Control) (BCR-Abl): can be degraded | degradation of target protein c-Abl (decrease in level vs Control) (c-Abl): can be degraded

NC(=O)Nc1cc(-c2cccc(F)c2)sc1C(=O)N[C@H]1CCCN(CCOCCOCCNC[C@@H](O)COc2cccc(OCCc3ccccc3)c2)C1 [Example 17, 5-(3-fluorophenyl)-N—((S)-1-(2-(2-(2-(((R)-2-hydroxy-3-(3-phenethoxyphenoxy)propyl)amino)ethoxy)ethoxy)ethyl)piperidin-3-yl)-3-ureidothiophene-2-carboxamide]
degradation of target protein Chk1 (decrease in level vs Control) (Chk1): can be degraded

O[C@H](CNCCOCCOCCN1CCN(c2ccc(-c3cnc4c(-c5cccc6ncccc56)cnn4c3)cc2)CC1)COc1cccc(OCCc2ccccc2)c1 [Example 16, (R)-1-(3-phenethoxyphenoxy)-3-((2-(2-(2-(4-(4-(3-(quinolin-5-yl)pyrazolo[1,5-a]pyrimidin-6-yl)phenyl)piperazin-1-yl)ethoxy)ethoxy)ethyl)amino)propan-2-ol]
degradation of target protein ACVR1 (decrease in level vs Control) (ACVR1): can be degraded

CCN(CCCCNCCOCCOCCNCc1ccc(OCc2ccccc2)c(OCc2ccccc2)c1)CCOc1ccc(C(=O)c2c(-c3ccc(O)cc3)sc3cc(O)ccc23)cc1 [Example 23, (4-((1-(3,4-bis(benzyloxy)phenyl)-16-ethyl-5,8-dioxa-2,11,16-triazaoctadecan-18-yl)oxy)phenyl) (6-hydroxy-2-(4-hydroxyphenyl)benzo[b]thiophen-3-yl)methanone]
degradation of target protein ERα (decrease in level vs Control) (ERα): can be degraded

O=C(O)c1ccc2c(c1)nc(Nc1cccc(NCCOCCOCCNC[C@@H](O)COc3ccc(OCc4ccccc4)c(OCCc4ccccc4)c3)c1)c1ccncc12 [Example 19, (R)-5-((3-((2-(2-(2-((3-(4-(benzyloxy)-3-phenethoxyphenoxy)-2-hydroxypropyl)amino)ethoxy)ethoxy)ethyl)amino)phenyl)amino)benzo[c][2,6]naphthyridine-8-carboxylic acid]
degradation of target protein CK2 (decrease in level vs Control) (CK2): can be degraded
